The format of the data set is physicochemical. An excerpt:
The solvent will be used in proportion with the concentration of the compound I and its solubility in this solvent. […] It will be sought to have the lowest possible volume. The vehicle makes up the difference to 100%.

This passage reports Solubility results from patent US20070293446A1, “Compositions comprising C-13 alkoxyether macrolide compounds and phenylpyrazole compounds” (priority 1996, published 2007).

`N#Cc1nn(-c2c(Cl)cc(C(F)(F)F)cc2Cl)c(N)c1[S+]([O-])C(F)(F)F` (stereo not shown) [fipronil, 1-[2,6—Cl2-4—CF3 phenyl]-3—CN-4-[SO-CF3]-5—NH2 pyrazole] returned a Solubility of 4.3 % m/V.
